Where two headings read alike, the source gives them in different places.
Experiments:
[1] = test system: CYP3A4 mRNA; assay: CYP3A4 mRNA induction in plated cryopreserved human hepatocytes; assay type: cell-based; settings: three donors; for true negative in vitro induction: statistical dose response and fold induction
[2] = test system: human hepatocytes; assay: Cytotoxicity / bell-shaped curves in hepatocyte induction incubations; assay type: cell-based; settings: for concentrations removed from fitting (bell-shaped curve, suspected cytotoxicity): all donors; for concentration above which cytotoxicity was seen: donor two
[3] = Metabolic stability in hepatocyte induction incubations; assay type: in vitro ADME, human; settings: last 24 hours of the incubation
[4] = cited from earlier work
[5] = cited from earlier work; remark: listed apart in the source
[6] = test system: CYP3A; settings: human, in vivo; cited from earlier work
[7] = Estimated free fraction in culture medium; settings: bovine, hepatocyte culture medium with 1.25 mg/ml BSA
[8] = reported value before fu was set to 0.01

## CC(C)OC(=O)[C@H](C)N[P@](=O)(OC[C@H]1O[C@@H](n2ccc(=O)[nH]c2=O)[C@](C)(F)[C@@H]1O)Oc1ccccc1 [Sofosbuvir, sofosbuvir]
[1]
  true negative in vitro induction: negative in one donor
  concentration-dependent increase in CYP3A4 mRNA: concentration-dependent increases in two of three donors
[2]
  concentrations removed from fitting (bell-shaped curve, suspected cytotoxicity): 300 µM

## Nc1nc(-n2cc(C(=O)O)c(=O)c3cc(F)c(N4CC(O)C4)c(Cl)c32)c(F)cc1F [Delafloxacin, delafloxacin]
[1]
  true negative in vitro induction: negative in two donors
  concentration-dependent increase in CYP3A4 mRNA: concentration-dependent increases in one of three donors
[2]; donor three
  concentration at which apparent cytotoxicity was seen: 300 µM
[2]
  concentration above which cytotoxicity was seen: > 100 µM
[3]
  % loss when comparing the Cavg to the T0 concentration (limited depletion): < 25%

## O=C(O)c1ccc2nc(-c3cc(Cl)cc(Cl)c3)oc2c1 [Tafamidis, tafamidis]
[1]
  concentration-dependent increase in CYP3A4 mRNA: concentration-dependent increases in all three donors
[3]
  % loss when comparing the Cavg to the T0 concentration (limited depletion): < 25%
[4]; plasma
  fu (reported plasma protein binding): 0.005

## Cn1cnc2c(F)c(Nc3ccc(Br)cc3F)c(C(=O)NOCCO)cc21 [Binimetinib]
[1]
  concentration-dependent increase in CYP3A4 mRNA: concentration-dependent increases in all three donors

## CN(CCOc1ccc(CC2SC(=O)NC2=O)cc1)c1ccccn1 (stereo not drawn) [rosiglitazone]
[5]
  observed fu,in vitro: 0.15

## NC(=O)N1c2ccccc2C=Cc2ccccc21 [Carbamazepine]
[6]
  AUCR range: 0.124–0.603

## O=C(O)CSc1nnc(Br)n1-c1ccc(C2CC2)c2ccccc12 [Lesinurad, lesinurad]
[1]
  concentration-dependent increase in CYP3A4 mRNA: concentration-dependent increases in all three donors
[2]
  concentrations removed from fitting (bell-shaped curve, suspected cytotoxicity): > 100 µM
[3]
  % loss when comparing the Cavg to the T0 concentration (limited depletion): < 25%

## C[C@H](Cn1cnc2c(N)ncnc21)OCP(=O)(O)O [Tenofovir, tenofovir]
[1]
  true negative in vitro induction: true in vitro negatives in all three donors
[3]
  % loss when comparing the Cavg to the T0 concentration (limited depletion): < 25%

## Cc1nnc(C(=O)NC(C)(C)c2nc(C(=O)NCc3ccc(F)cc3)c(O)c(=O)n2C)o1 [Raltegravir, raltegravir]
[1]
  true negative in vitro induction: true in vitro negatives in all three donors

## COc1ccccc1Oc1c(NS(=O)(=O)c2ccc(C(C)(C)C)cc2)nc(-c2ncccn2)nc1OCCO [Bosentan]
[5]
  observed fu,in vitro: 0.38

## Cc1cc(CCCOc2c(C)cc(-c3noc(C(F)(F)F)n3)cc2C)on1 [Pleconaril]
[5]
  correction factor applied to nominal concentrations (nonspecific binding): 0.2
[7]
  fraction unbound: 0.256
[4]; [8]
  fu (reported plasma protein binding): 0.01

## CCC(=O)NC[C@@H]1C[C@H]1c1cccc2c1CCO2 [Tasimelteon, tasimelteon]
[1]
  concentration-dependent increase in CYP3A4 mRNA: concentration-dependent increases in all three donors

## O=C1Nc2ccc(Cl)cc2[C@@](C#CC2CC2)(C(F)(F)F)O1 [Efavirenz]
[6]
  AUCR range: 0.240–0.929
[4]; plasma
  fu (reported plasma protein binding): 0.0025

## O=C1NC(=O)C(c2ccccc2)(c2ccccc2)N1 [Phenytoin]
[6]
  AUCR range: 0.105–0.607

## CCc1ccc(CCOc2ccc(CC3SC(=O)NC3=O)cc2)nc1 (stereo not drawn) [pioglitazone]
[5]
  observed fu,in vitro: 0.22

## CO[C@H]1/C=C/O[C@@]2(C)Oc3c(C)c(O)c4c(O)c(c5c(nc6cc(C)ccn65)c4c3C2=O)NC(=O)/C(C)=C\C=C\[C@H](C)[C@H](O)[C@@H](C)[C@@H](O)[C@@H](C)[C@H](OC(C)=O)[C@@H]1C [Rifaximin, rifaximin]
[1]
  concentration-dependent increase in CYP3A4 mRNA: concentration-dependent increases in all three donors
[3]
  % loss when comparing the Cavg to the T0 concentration (limited depletion): < 25%

## CCC1(c2ccccc2)C(=O)NC(=O)NC1=O [Phenobarbital]
[6]
  AUCR: 0.394

## O=C(O)c1ccc(CN2C[C@@H]3C[C@H]2CN3Cc2ccc(Oc3ccc(-c4ncco4)cc3)cc2)cc1 [Acebilustat, acebilustat]
[1]
  true negative in vitro induction: true in vitro negatives in all three donors
[3]
  % loss when comparing the Cavg to the T0 concentration (limited depletion): < 25%

## Cc1cc(/C=C/C#N)cc(C)c1Nc1ccnc(Nc2ccc(C#N)cc2)n1 [Rilpivirine, rilpivirine]
[1]
  concentration-dependent increase in CYP3A4 mRNA: concentration-dependent increases in all three donors
[2]
  concentration above which cytotoxicity was seen: > 100 µM
[2]; donors one
  concentration above which signs of cytotoxicity were seen: > 30 µM

## CC(C)N(CCCCOCC(=O)NS(C)(=O)=O)c1cnc(-c2ccccc2)c(-c2ccccc2)n1 [Selexipag, selexipag]
[1]
  concentration-dependent increase in CYP3A4 mRNA: concentration-dependent increases in all three donors
[4]; [8]
  fu (reported plasma protein binding): < 0.01

## CO[C@H]1/C=C/O[C@@]2(C)Oc3c(C)c(O)c4c(O)c(c(/C=N/N5CCN(C)CC5)c(O)c4c3C2=O)NC(=O)/C(C)=C\C=C\[C@H](C)[C@H](O)[C@@H](C)[C@@H](O)[C@@H](C)[C@H](OC(C)=O)[C@@H]1C [Rifampicin]
[3]
  % loss when comparing the Cavg to the T0 concentration (limited depletion): < 25%

## Cn1c(Cn2ccc(C(F)(F)F)c(Oc3cc(Cl)cc(C#N)c3)c2=O)n[nH]c1=O [Doravirine, doravirine]
[1]
  concentration-dependent increase in CYP3A4 mRNA: concentration-dependent increases in all three donors
[3]
  % loss when comparing the Cavg to the T0 concentration (limited depletion): < 25%

From article PMC9232448 (European Journal of Drug Metabolism and Pharmacokinetics, 2022)
